Measurements as given in ChEMBL document CHEMBL6134926, “Targeting KRAS G12D Mutations: Advances in Small Molecule Inhibitors and PROTAC Technology” (ACS Med Chem Lett, 2025).

Assays:
[1] = (§1) Inhibition of GST-tagged KRAS G12V mutant (2 to 169 residues) (unknown origin)/SOS1 catalytic domain (564 to 1069 residues) (unknown origin) protein-protein interaction preincubated with compound for 90 mins followed by SOS1 and GTP-DY-647P1 addition and measured after 60 mins by fluorescence based nucleotide exchange assay; set-up: species or system Homo sapiens
[2] = Inhibition of ERK phosphorylation in human GP2d cells harboring KRAS G12D mutant incubated for 3 hrs by ICW assay; type: cell-based
SOS1-KRAS = SOS1-KRAS (Homo sapiens, UniProt P01116, G12D); test: as §1, with “G12D” for “G12V”, “30” for “60”; type: protein-complex assay

SMILES | IC50 [1] [nM] | IC50 [2] [nM] | IC50 (SOS1-KRAS) [nM]
CN(C)C(=O)c1nn2c(c1Cl)CN(c1nc(OC[C@@]34CCCN3C[C@H](F)C4)nc(N3CCC(c4c(Cl)sc(N)c4C#N)C3)c1C#N)CCC2 (stereo partly specified) | < 10 | 10 | < 10
CN(C)C(=O)c1nn2c(c1Cl)CN(c1nc(OC[C@@]34CCCN3C[C@H](F)C4)nc(N3CC(c4csc(N)c4C#N)C3)c1C#N)CCC2 | < 10 | 100 | < 10
CC1(c2csc(N)c2C#N)CN(c2nc(OC[C@@]34CCCN3C[C@H](F)C4)nc(N3C[C@H]4CC[C@@H](C3)N4)c2C#N)C1 |  | 10 | < 10
CN(C)C(=O)c1nn2c(c1Cl)CN(c1cc(N3CC(C)(c4csc(N)c4C#N)C3)nc(OC[C@@]34CCCN3C[C@H](F)C4)n1)CCC2 |  | 1000 | 10
CN(C)C(=O)c1nn2c(c1Cl)CN(c1nc(OC[C@@]34CCCN3C[C@H](F)C4)nc(N3CC(c4c(Cl)sc(N)c4C#N)C3)c1C#N)CCC2 | < 10 | 1 | < 10
C[C@H](c1cccnc1N)N(C)c1nc(OC[C@@]23CCCN2C[C@H](F)C3)nc(N2CC(C)(c3csc(N)c3C#N)C2)c1C#N | < 10 | 10 | < 10
